Measured values taken from article PMC8922279, “Identification of β-Lactams Active against Mycobacterium tuberculosis by a Consortium of Pharmaceutical Companies and Academic Institutions” (ACS Infectious Diseases, 2022).
≈ marks a conversion by molar mass, not a printed value.

Columns and labels:
in vitro [1] = details: human, plasma, pH 7.4, % bound to plasma
[2] = Cytotoxicity against HepG2 cells (CellTiter-Glo); format: cell-based, human; details: human, HepG2 cells
Protocol: (§1) Compounds were tested for cytotoxicity against HepG2 cells as previously described.[48],[69],[70] Briefly, cells were exposed to compounds for 48–72 h, and viability was measured using CellTiter-Glo (Promega).

HepG2 cells = test: Cytotoxicity against HepG2 cells (CellTiter-Glo); format: cell-based, human; details: Table S4
Protocol: as §1

CYP3A4 = CYP3A4 (Homo sapiens, UniProt P08684); test: CYP3A4 inhibition
[3] = Metabolic stability, mouse; format: in vitro ADME
Mtb H37Rv = test: MIC90 against replicating (R) Mtb H37Rv, with or without clavulanate; format: cell-based, Mycobacterium tuberculosis; details: Table S4
in vivo = details: female, 129sv DHP-1 knockout, mouse, sc, 50 mg/kg
hERG = molecular target: T1, hERG (Homo sapiens, UniProt Q12809); test: hERG channel measurements (QPatch automated patch clamp); format: cell-based; details: HEK293 cells stably transfected with hERG (inducible), pH 7.4
T1 construct: expressed in transfected cells
Protocol: The potency of the compounds in inhibiting the human ERG potassium channel (hERG) tail current was assessed in a recombinant HEK293 cell line stably transfected with hERG cDNA under an inducible promoter using the rapid ICE (rapid ion channel electrophysiology) assay. Rapid ICE is an automated patch clamp assay utilizing a QPatch HTX system (Sophion Bioscience A/S). Briefly, inducible HEK hERG cells were cultivated in minimum essential medium supplemented with 10% FBS, 1% nonessential amino acids, 1% sodium pyruvate, 2 mM L-glutamine, 15 μg/mL blasticidin, and 100 μg/mL hygromycin. hERG channel induction was obtained by adding 10 μg/mL tetracycline for 24, 48, or 72 h before recordings. On the day of the experiment, cells were detached with TrypLE and prepared to be loaded on the instrument. Cells were resuspended in 7 mL of serum-free media containing 25 mM Hepes and soybean trypsin inhibitor and immediately placed in the cell storage tank of the machine. […] The voltage protocol was run and recorded continuously during the experiment. […] The average of tail current amplitude values recorded from four sequential voltage pulses was used to calculate for each cell the effect of the test substance by calculating the residual current (% control) compared with vehicle pretreatment. […]

E. coli = test: Microbial spectrum, E. coli; format: cell-based, Escherichia coli
in vitro [4] = details: beagle, dog, plasma

T1 sequence (Q12809 whole entry): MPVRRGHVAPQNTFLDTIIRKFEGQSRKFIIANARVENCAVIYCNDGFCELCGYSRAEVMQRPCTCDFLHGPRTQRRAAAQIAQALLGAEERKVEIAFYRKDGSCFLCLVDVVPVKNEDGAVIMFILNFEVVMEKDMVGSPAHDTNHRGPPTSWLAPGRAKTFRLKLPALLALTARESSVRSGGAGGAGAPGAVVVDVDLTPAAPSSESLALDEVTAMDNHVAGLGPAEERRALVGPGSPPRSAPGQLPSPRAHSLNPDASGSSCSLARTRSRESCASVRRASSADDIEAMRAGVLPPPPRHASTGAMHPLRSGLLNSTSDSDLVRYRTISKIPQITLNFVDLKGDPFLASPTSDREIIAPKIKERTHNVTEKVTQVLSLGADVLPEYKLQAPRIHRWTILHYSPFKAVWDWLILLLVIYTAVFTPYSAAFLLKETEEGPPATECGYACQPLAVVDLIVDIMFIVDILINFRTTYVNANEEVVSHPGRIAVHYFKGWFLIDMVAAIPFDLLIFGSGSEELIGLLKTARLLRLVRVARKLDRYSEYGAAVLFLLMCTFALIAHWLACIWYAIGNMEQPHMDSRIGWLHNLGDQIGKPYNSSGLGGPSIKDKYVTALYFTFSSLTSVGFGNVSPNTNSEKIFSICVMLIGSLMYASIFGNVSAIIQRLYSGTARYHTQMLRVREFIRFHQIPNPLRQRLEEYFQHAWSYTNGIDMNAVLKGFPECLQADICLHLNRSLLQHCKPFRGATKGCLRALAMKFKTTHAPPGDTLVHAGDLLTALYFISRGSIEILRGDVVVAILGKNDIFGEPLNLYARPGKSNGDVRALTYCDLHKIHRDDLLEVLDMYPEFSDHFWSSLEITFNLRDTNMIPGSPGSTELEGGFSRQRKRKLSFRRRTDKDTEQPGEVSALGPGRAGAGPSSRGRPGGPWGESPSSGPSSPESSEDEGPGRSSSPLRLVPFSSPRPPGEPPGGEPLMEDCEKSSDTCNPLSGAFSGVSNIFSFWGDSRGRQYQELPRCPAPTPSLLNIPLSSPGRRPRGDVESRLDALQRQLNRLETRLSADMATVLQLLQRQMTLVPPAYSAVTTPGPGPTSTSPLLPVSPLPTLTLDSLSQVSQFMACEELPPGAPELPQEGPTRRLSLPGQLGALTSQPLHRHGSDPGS
Sequence of CYP3A4 (P08684 whole entry, species assumed): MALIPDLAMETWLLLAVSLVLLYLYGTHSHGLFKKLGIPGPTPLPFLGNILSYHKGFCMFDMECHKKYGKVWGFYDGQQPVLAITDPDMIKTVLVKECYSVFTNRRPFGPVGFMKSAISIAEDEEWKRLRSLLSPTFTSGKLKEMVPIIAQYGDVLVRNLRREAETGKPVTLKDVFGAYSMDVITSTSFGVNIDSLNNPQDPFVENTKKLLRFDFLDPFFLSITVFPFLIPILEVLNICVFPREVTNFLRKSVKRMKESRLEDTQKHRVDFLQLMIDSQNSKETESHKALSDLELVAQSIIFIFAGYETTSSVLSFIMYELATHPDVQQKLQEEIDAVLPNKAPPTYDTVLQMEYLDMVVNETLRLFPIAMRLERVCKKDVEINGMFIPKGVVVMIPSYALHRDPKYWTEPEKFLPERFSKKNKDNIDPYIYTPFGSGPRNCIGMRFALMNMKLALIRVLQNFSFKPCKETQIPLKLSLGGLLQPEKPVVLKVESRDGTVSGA

O=C(Cc1ccc(C2=NCCN2)cc1)N[C@@H]1C(=O)N2C(C(=O)O)=C(CSc3nncs3)CS[C@H]12 [TBBL-0000316]
fraction unbound at 4 h, 2 μM (in vitro [1]): 0.619 | IC50 [2]: > 100 µM | HepG2 LD50 (HepG2 cells): > 100 µM | IC50 (CYP3A4): > 25 µM | metabolic stability [3]: 1.1 μL/min/mg protein | metabolic stability 1/2 life [3]: 1300 min | Mtb H37Rv R + CLAV (MIC90) (Mtb H37Rv; clavulanate 4 μg/mL): 0.5 µM | Mtb H37Rv R (MIC90) (Mtb H37Rv; no clavulanate): 44.7 µM | AUC(0-t) (in vivo): 23700 ng·h/mL | Cmax (in vivo): 17500 ng/mL | Tmax (in vivo): 30 min | IC50 at 5 min (hERG): > 50 µM | MIC90 (E. coli; Escherichia coli, E. coli): 31.8 µM (≈ 16.4 µg/mL) | E.coli R + CLAV (MIC90) (E. coli; clavulanate 4 μg/mL, Table S4): 31.8 µM | remaining at 2 h, 2 μM (in vitro [4]): 77.3%
